Assay results as given in patent US20060257448A1, “Resorbable polymer composition, implant and method of making implant” (The University of Zurich, priority 2005, published 2006).

Test system: MC3T3-E1 cells
Experiment: Alkaline phosphatase activity (maturation) of MC3T3-E1 preosteoblastic cells
Type: cell-based
Details: increasing amounts of solvent (triacetin 0 to 6 mM); determined after 6 days; FIG. 2
Method: To compare the effect of various plasticizer regarding their osteogenetic effect to that of triacetin, MC3T3-E1 cells were grown in an alpha-modified Minimum Essential Medium (Life Technologies, Inc., Grand Island, N.Y.) containing 10% fetal calf serum (Life Technologies, Inc.), 50 μg/ml gentamycin, and 50 μg/ml ascorbic acid. To examine the action of triacetin on this cell line, 1×10^5 cells per well were plated in 6-well plates and triacetin subsequently added. Medium exchange was performed after 3 days and alkaline phosphatase (ALP) was determined according to Lowry, O. et al. [J. Biol. Chem. 207 (1954) 19-37]: p-nitrophenol liberated was converted to p-nitrophenylate by adding 400 μl of 1 M NaOH, which was quantitated by measuring the absorbance at 410 nm (epsilon=17500/mol×cm). Alkaline phosphatase activity was normalized to total protein and expressed as nmol nitrophenylate generated per min per mg protein.
MC3T3-E1 cells were treated with increasing amounts of different solvents and the effect on the maturation of MC3T3-E1 cells determined after 6 days by alkaline phosphatase activity.

| SMILES | Maturation of MC3T3-E1 cells determined by alkaline phosphatase activity |
| --- | --- |
| CN(C)C=O [N,N-dimethylformamide] | no positive effect |
| C[S+](C)[O-] [dimethylsulfoxide] | no positive effect |
| CCO [ethanol] | no positive effect |
| CO [methanol] | no positive effect |
| CC(=O)OCC(COC(C)=O)OC(C)=O [triacetin, 1,2,3-Triacetoxypropane] | increases in a concentration dependent manner |
